From publication PMC6767220, “Active Anti-Inflammatory and Hypolipidemic Derivatives of Lorazepam” (Molecules, 2019)
Where two headings read alike, the source gives them in different places.

Columns and labels:
soybean lipoxygenase-1 = target: T1, soybean lipoxygenase-1 (Glycine max, UniProt P08170); test: Inhibition of soybean lipoxygenase; format: biochemical; conditions: sodium linoleate 0.1 mM, 7 min incubation; read-out: Lipoxygenase IC50
T1 sequence (P08170 1-839): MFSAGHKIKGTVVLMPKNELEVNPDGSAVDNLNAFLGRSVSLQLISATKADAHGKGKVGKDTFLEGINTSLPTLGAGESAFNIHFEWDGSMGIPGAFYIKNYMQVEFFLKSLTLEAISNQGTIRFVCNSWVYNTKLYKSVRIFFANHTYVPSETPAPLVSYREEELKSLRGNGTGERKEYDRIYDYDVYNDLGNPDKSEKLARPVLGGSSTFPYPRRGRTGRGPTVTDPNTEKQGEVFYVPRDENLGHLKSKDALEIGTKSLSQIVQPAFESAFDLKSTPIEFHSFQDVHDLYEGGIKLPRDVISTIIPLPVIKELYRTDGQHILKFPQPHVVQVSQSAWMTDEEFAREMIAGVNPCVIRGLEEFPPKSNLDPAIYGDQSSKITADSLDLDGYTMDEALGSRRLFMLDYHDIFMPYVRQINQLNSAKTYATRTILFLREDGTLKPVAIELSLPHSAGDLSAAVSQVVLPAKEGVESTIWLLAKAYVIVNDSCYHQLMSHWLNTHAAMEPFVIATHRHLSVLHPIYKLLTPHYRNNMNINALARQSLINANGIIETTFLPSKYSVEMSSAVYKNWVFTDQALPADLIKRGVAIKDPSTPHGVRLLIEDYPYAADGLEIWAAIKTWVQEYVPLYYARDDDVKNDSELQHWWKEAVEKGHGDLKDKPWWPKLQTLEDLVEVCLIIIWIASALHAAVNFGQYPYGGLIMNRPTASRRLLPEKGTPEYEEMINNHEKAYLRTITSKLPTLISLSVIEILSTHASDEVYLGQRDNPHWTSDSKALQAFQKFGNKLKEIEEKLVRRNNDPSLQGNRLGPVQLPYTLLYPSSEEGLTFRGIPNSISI
Experimental: The reaction mixture contained the test compounds dissolved in ethanol and soybean lipoxygenase (250 U/mL) in Tris buffer (pH 9). The reaction was initiated by the addition of sodium linoleate (0.1 mM) and monitored for 7 min at 28 °C, by recording the absorbance of a conjugated diene structure at 234 nm. For the estimation of the type of inhibition, the above experiments were repeated, using sodium linoleate at 1 mM, which is higher than the saturating substrate concentration.

inflammation [1] = conditions: cited from earlier work
inflammation [2] = system: inflammation; set-up: method as in PMID 25792646; conditions: cited from earlier work
[3] = system: Triton WR1339 (tyloxapol) induced hyperlipidemia; test: Triton WR1339 (tyloxapol) induced hyperlipidemia: plasma TC, TG, LDL-C; format: in vivo; conditions: ip, rat plasma, 24 h, tyloxapol 200 mg/kg i.p.; for inhibition in vivo at 50 µmol/kg: dose i.p. 50 µmol/kg; for inhibition in vivo at 150 µmol/kg: dose i.p. 150 µmol/kg
[4] = Interaction with the stable radical DPPH; conditions: DPPH 200 µΜ, 30 min incubation
Experimental: Compounds (in absolute ethanol, final concentration 50–200 µM) were added to an equal volume of an ethanolic solution of DPPH (final concentration 200 µM) at room temperature (22 ± 2 °C). Absorbance (517 nm) was recorded after 30 min [22].

[5] = system: rat hepatic microsomal membrane lipid peroxidation; test: Inhibition of rat hepatic microsomal membrane lipid peroxidation induced by ferrous ascorbate; format: biochemical; conditions: rat hepatic microsomal fraction, ferrous ascorbate, 45 min incubation
Experimental: The incubation mixture contained heat-inactivated rat hepatic microsomal fraction, ascorbic acid (0.2 mM) in Tris–HCl/KCl buffer (pH 7.4) and the test compounds dissolved in dimethylsulphoxide. The reaction was initiated by FeSO4 (10 µM) and the mixture was incubated at 37 °C. Aliquots were taken at various time intervals for 45 min. Lipid peroxidation was assessed spectrophotometrically (535 against 600 nm) by the determination of 2-thiobarbituric acid (TBA) reactive material.

[6] = system: carrageenan-induced rat paw oedema; test: Carrageenan-induced rat paw oedema; format: in vivo; conditions: ip, i.p. 0.15 mmol/kg, 3.5 h post administration, vs controls, read-out: % Oedema Reduction
Experimental: An aqueous solution of carrageenan was prepared (1% w/v) and 0.1 mL of this was injected i.d. into the right hind paw of female rats; the left paw served as control. The tested compounds (suspended in water with a few drops of Tween 80) were given intra peritoneally (i.p.) (0.15 mmol/kg) 5 min prior to the carrageenan injection. After 3.5 h the hind paws were weighed separately. The produced oedema was estimated as paw weight increase.

[7] = read-out: % Reduction LDL-C (LDL cholesterol)
[8] = read-out: % Reduction TC (total cholesterol)
[9] = read-out: % Reduction TG (triglycerides)

SMILES | IC50 (soybean lipoxygenase-1) | Anti-inflammatory action in vivo (inflammation [1]) | Anti-inflammatory action in vitro (inflammation [2]) | inhibition in vivo at 50 µmol/kg [3, 7] | inhibition in vivo at 50 µmol/kg [3, 8] | inhibition in vivo at 50 µmol/kg [3, 9] | inhibition in vivo at 150 µmol/kg [3, 7] | inhibition in vivo at 150 µmol/kg [3, 8] | inhibition in vivo at 150 µmol/kg [3, 9] | Percent Interaction with DPPH ([4]; compound 50 µΜ) | Percent Interaction with DPPH ([4]; compound 100 µΜ) | Percent Interaction with DPPH ([4]; compound 200 µΜ) | IC50 [5] | inhibition in vivo at 150 µmol/kg [6] | melting point | Anti-inflammatory action (inflammation [1]; at similar doses)
Cc1cc(C(C)(C)C)c(O)c(C(C)(C)C)c1 [BHT, 2,6-di-tert-butyl-4-methylphenol] | 192 µM | lacks such action | lacks such action |  |  |  |  |  |  |  |  |  |  |  |  | 
CC(C)(C)c1cc(C=CC(=O)OC2N=C(c3ccccc3Cl)c3cc(Cl)ccc3NC2=O)cc(C(C)(C)C)c1O (centres unmarked) [Compound 8, (E)-7-Chloro-5-(2-chlorophenyl)-2-oxo-2,3-dihydro-1H-benzo[e][1,4]diazepin-3-yl 3-(3,5-di-tert-butyl-4-hydroxyphenyl)acrylate] | 44 µM |  |  | 44% | 59% | 52% | 63% | 81% | 66% | 30% | 49% | 90% | > 100 µM | 37% | 274 °C | 
O=C(O)CCCC[C@@H]1CCSS1 [lipoic acid, (R)-5-(1,2-dithiolan-3-yl)pentanoic acid] |  |  |  |  |  |  |  |  |  |  |  |  |  |  |  | weak anti-inflammatory agent
